{
  "source": "patent US10189822B2",
  "about": "“Heterocyclic modulators of lipid synthesis” (3-V Biosciences, Inc., priority 2015, dated 2019)",
  "key": {"db/db mice": {"test_system": "db/db mice", "details": "mouse, in vivo; cited from earlier work"}, "[1]": {"test_system": "Db/+ mice fed a high fructose diet", "details": "treated for 28 days; cited from earlier work"}, "[2]": {"test_system": "HCV GT1b replicon cell line", "details": "expected value, Table 10; IFN-α; cited from earlier work"}, "[3]": {"test_system": "HCV GT1b replicon cell line", "type": "cell-based", "details": "IFN-α"}, "HCV replicon GT1b cells": {"test_system": "HCV replicon GT1b cells", "experiment": "Cytotoxicity in HCV replicon GT1b cells, Cell Titer Flo (Example 5)", "type": "cell-based", "details": "72 hours, IFN-α"}, "[4]": {"test_system": "HCV GT1b replicon cell line", "experiment": "Two-compound combination study in HCV GT1b replicon, MacSynergy II", "type": "cell-based", "method": "The DMSO stocks of the compounds used in the single compound testing were also used in this analysis. Combination dilution matrixes were generated by POD-810 in 96-well assay microplates. The POD-810 system was used to generate 7-point, 2-fold serial dilutions in a matrix format.\nThe plates were incubated for 1 hour, and cell viability was measured on an Envision reader for cytotoxicity calculation. The liquid was then removed from the plates, after which 50 μL PBS and 50 μL firefly luciferase substrate solution were added to each well, after a 2-minute incubation period, chemiluminescence (for HCV replication calculation) was measured. The data were analyzed using MacSynergy™ II."}},
  "data": [
    {"molecule": "CC12C[C@@]34C=CC(=O)[C@@](C)(CCC(=O)Nc5c(O)ccc(C(=O)O)c5O)C3[C@H](CC1C4)O2", "note": "(stereo partly drawn) [platensimycin]", "values": [
      {"measurement": "Ambient glucose levels", "setting": "db/db mice", "result": "reduced"},
      {"measurement": "Insulin sensitivity", "setting": "[1]", "result": "improved insulin sensitivity"},
      {"measurement": "Liver triglyceride levels", "setting": "[1]", "result": "reduced liver triglyceride levels"}
    ]},
    {"molecule": "IFN-α", "values": [
      {"measurement": "GT1b Expected EC50", "setting": "[2]", "result": 1, "unit": "IU/mL"},
      {"measurement": "GT1b EC50 in dose ranging assay", "setting": "[3]; Table 13", "result": 1.34, "unit": "IU/mL"},
      {"measurement": "GT1b EC50", "setting": "[3]; single compound, 72 hours", "result": 1.34, "unit": "IU/mL"},
      {"measurement": "GT1b CC50", "setting": "HCV replicon GT1b cells", "result": ">1000", "unit": "IU/mL"},
      {"measurement": "GT1b EC50 of single dose in drug combination", "setting": "[4]; individual compound in the combination matrix, IFN-α", "result": 3.43, "unit": "IU/mL"}
    ]},
    {"molecule": "Cc1ccc(C(=O)N2CCC(F)(c3ccc(C#N)cc3)CC2)cc1NC(=O)NC1CCCOC1", "note": "(stereo not drawn) [(V-K)]", "values": [
      {"measurement": "Combination antiviral effect (in words)", "setting": "[4]; in combination with IFN-α, RBV, Compounds B, C, D, E", "result": "additive antiviral activity"}
    ]}
  ]
}
